Measured values from patent publication US8722849B2, “Polypeptides” (Novo Nordisk A/S, priority 2011, dated 2014).
Starred links: 1 amine or outer side, 2 acyl side, 3 side chain; linkers in the order of their positions; H or OH if unused. Positions of bridges follow the written chain, without caps; N, C: chain ends. Non-standard residues stand in square brackets, D forms with d. Residues, ends and D or L forms follow the SMILES beside them. Groups on a side chain read outwards from the residue. *: point of attachment. C20 diacid = O=C(O)CCCCCCCCCCCCCCCCCCC(=O)*; C18 diacid = O=C(O)CCCCCCCCCCCCCCCCC(=O)*; γGlu = O=C(O)[C@H](CCC(=O)[*:2])N[*:1]; Orn = NCCC[C@H](N)C(=O)O; AEEA = NCCOCCOCC(=O)O

Test system: food intake
Assay: Assay (I) efficacy testing on appetite (food intake), ad libitum fed rat model
Format: in vivo, Sprague Dawley (SD) rats
Details: 3 nmol/kg
Outline: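 Sprague Dawley rats (200–250 g), single-housed under reversed light cycle with free food and water, got one ip, po or sc dose of 0.01–3 mg/kg just before lights-off. Individual food intake recorded hourly for 7 h, then at 24 h and sometimes 48 h; groups of 5–8, Grubbs outliers excluded.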

SMILES	Food intake reduction 0-24 h 3 nmol/kg (%)	Food intake reduction 24-48 h 3 nmol/kg (%)
CC[C@H](C)[C@H](NC(=O)[C@@H]1CCCN1C(=O)CNC(=O)[C@H](Cc1ccccc1)NC(=O)[C@H](CC(N)=O)NC(=O)[C@H](CC(N)=O)NC(=O)[C@H](CO)NC(=O)[C@H](CO)NC(=O)[C@H](Cc1c[nH]cn1)NC(=O)[C@H](CCCNC(=N)N)NC(=O)[C@H](CC(C)C)NC(=O)[C@H](Cc1ccccc1)NC(=O)[C@H](CCC(=O)O)NC(=O)[C@H](C)NC(=O)[C@H](CC(C)C)NC(=O)[C@H](CCCNC(=N)N)NC(=O)[C@H](CCC(N)=O)NC(=O)[C@@H](NC(=O)[C@H](C)NC(=O)[C@@H]1CSSC[C@H](NC(=O)[C@H](CCCCN)NC(=O)[C@H](Cc2c[nH]cn2)NC(=O)CC[C@H](NC(=O)CCCCCCCCCCCCCCCCC(=O)O)C(=O)O)C(=O)N[C@@H](CC(N)=O)C(=O)N[C@@H]([C@@H](C)O)C(=O)N[C@@H](C)C(=O)N[C@@H]([C@@H](C)O)C(=O)N1)[C@@H](C)O)C(=O)N[C@@H](CC(C)C)C(=O)N1CCC[C@H]1C(=O)N1CCC[C@H]1C(=O)N[C@H](C(=O)N[C@@H](CC(N)=O)C(=O)N[C@H](C(=O)NCC(=O)N[C@@H](CO)C(=O)N[C@@H](Cc1c[nH]cn1)C(=O)N[C@H](C(=O)N[C@@H](Cc1ccc(O)cc1)C(N)=O)[C@@H](C)O)C(C)C)[C@@H](C)O [Example 71, N-alpha-[(S)-4-Carboxy-4-(17-carboxyheptadecanoylamino)butyryl]-His-[Glu14,Arg17,His35]-pramlintide] ({C18 diacid-γGlu}-HKCNTATCATQRLAEFLRHSSNNFGPILPPTNVGSHTY-NH2; disulfide 3-8 (inferred); C-terminus assumed)	10%	0%
CC[C@H](C)[C@H](NC(=O)[C@H](CCCCNC(=O)COCCOCCNC(=O)COCCOCCNC(=O)CC[C@H](NC(=O)CCCCCCCCCCCCCCCCC(=O)O)C(=O)O)NC(=O)CNC(=O)[C@H](Cc1ccccc1)NC(=O)[C@H](CC(N)=O)NC(=O)[C@H](CC(N)=O)NC(=O)[C@H](CO)NC(=O)[C@H](CO)NC(=O)[C@H](Cc1c[nH]cn1)NC(=O)[C@H](Cc1c[nH]cn1)NC(=O)[C@H](CC(C)C)NC(=O)[C@H](Cc1ccccc1)NC(=O)[C@H](CCC(=O)O)NC(=O)[C@H](C)NC(=O)[C@H](CC(C)C)NC(=O)[C@H](CCCNC(=N)N)NC(=O)[C@H](CCC(N)=O)NC(=O)[C@@H](NC(=O)[C@H](C)NC(=O)[C@@H]1CSSC[C@H](NC(=O)[C@@H](N)CCCCN)C(=O)N[C@@H](CC(N)=O)C(=O)N[C@@H]([C@@H](C)O)C(=O)N[C@@H](C)C(=O)N[C@@H]([C@@H](C)O)C(=O)N1)[C@@H](C)O)C(=O)N[C@@H](CC(C)C)C(=O)N1CCC[C@H]1C(=O)N1CCC[C@H]1C(=O)N[C@H](C(=O)N[C@@H](CC(N)=O)C(=O)N[C@H](C(=O)NCC(=O)N[C@@H](CO)C(=O)N[C@@H](CC(N)=O)C(=O)N[C@H](C(=O)N[C@@H](Cc1ccc(O)cc1)C(N)=O)[C@@H](C)O)C(C)C)[C@@H](C)O [Example 73, N-epsilon25-[2-(2-{2-[2-(2-{2-[(S)-4-Carboxy-4-(17-carboxyheptadecanoylamino)butyrylamino]ethoxy}ethoxy)acetylamino]ethoxy}ethoxy)acetyl]-[Glu14,His17,Lys25]-pramlintide] (H-KCNTATCATQRLAEFLHHSSNNFGK([AEEA-AEEA-γGlu-C18 diacid])ILPPTNVGSNTY-NH2; disulfide 2-7 (inferred); N-terminus and C-terminus assumed)	29%	2%
CC[C@H](C)[C@H](NC(=O)[C@@H]1CCCN1C(=O)CNC(=O)[C@H](Cc1ccccc1)NC(=O)[C@H](CC(N)=O)NC(=O)[C@H](CC(N)=O)NC(=O)[C@H](CO)NC(=O)[C@H](CO)NC(=O)[C@H](Cc1c[nH]cn1)NC(=O)[C@H](CCCNC(=N)N)NC(=O)[C@H](CC(C)C)NC(=O)[C@H](Cc1ccccc1)NC(=O)[C@H](CCC(=O)O)NC(=O)[C@H](C)NC(=O)[C@H](CC(C)C)NC(=O)[C@H](CCCNC(=N)N)NC(=O)[C@H](CCC(N)=O)NC(=O)[C@@H](NC(=O)[C@H](C)NC(=O)[C@@H]1CSSC[C@H](NC(=O)[C@H](Cc2c[nH]cn2)NC(=O)CNC(=O)CC[C@H](NC(=O)CCCCCCCCCCCCCCCCCCC(=O)O)C(=O)O)C(=O)N[C@@H](CC(N)=O)C(=O)N[C@@H]([C@@H](C)O)C(=O)N[C@@H](C)C(=O)N[C@@H]([C@@H](C)O)C(=O)N1)[C@@H](C)O)C(=O)N[C@@H](CC(C)C)C(=O)N1CCC[C@H]1C(=O)N1CCC[C@H]1C(=O)N[C@H](C(=O)N[C@@H](CC(N)=O)C(=O)N[C@H](C(=O)NCC(=O)N[C@@H](CO)C(=O)N[C@@H](CC(N)=O)C(=O)N[C@H](C(=O)N1CCC[C@H]1C(N)=O)[C@@H](C)O)C(C)C)[C@@H](C)O [Example 89, N-alpha-[(S)-4-Carboxy-4-(19-carboxynonadecanoylamino)butyryl]-Gly-[His1,Glu14,Arg17,Pro37]-pramlintide] ({C20 diacid-γGlu}-GHCNTATCATQRLAEFLRHSSNNFGPILPPTNVGSNTP-NH2; disulfide 3-8 (inferred))	42%	23%
CC[C@H](C)[C@H](NC(=O)[C@@H]1CCCN1C(=O)CNC(=O)[C@H](Cc1ccccc1)NC(=O)[C@H](CC(N)=O)NC(=O)[C@H](CC(N)=O)NC(=O)[C@H](CO)NC(=O)[C@H](CO)NC(=O)[C@H](Cc1c[nH]cn1)NC(=O)[C@H](Cc1c[nH]cn1)NC(=O)[C@H](CC(C)C)NC(=O)[C@H](Cc1ccccc1)NC(=O)[C@H](CCC(=O)O)NC(=O)[C@H](C)NC(=O)[C@H](CC(C)C)NC(=O)[C@H](CCCNC(=N)N)NC(=O)[C@H](CCC(N)=O)NC(=O)[C@@H](NC(=O)[C@H](C)NC(=O)[C@@H]1CSSC[C@H](NC(=O)[C@H](CCCNC(=N)N)NC(=O)CNC(=O)CC[C@H](NC(=O)CCCCCCCCCCCCCCCCCCC(=O)O)C(=O)O)C(=O)N[C@@H](CC(N)=O)C(=O)N[C@@H]([C@@H](C)O)C(=O)N[C@@H](C)C(=O)N[C@@H]([C@@H](C)O)C(=O)N1)[C@@H](C)O)C(=O)N[C@@H](CC(C)C)C(=O)N1CCC[C@H]1C(=O)N1CCC[C@H]1C(=O)N[C@H](C(=O)N[C@@H](CC(N)=O)C(=O)N[C@H](C(=O)NCC(=O)N[C@@H](CO)C(=O)N[C@@H](CC(N)=O)C(=O)N[C@H](C(=O)N1CCC[C@H]1C(N)=O)[C@@H](C)O)C(C)C)[C@@H](C)O [Example 101, N-alpha-[(S)-4-Carboxy-4-(19-carboxynonadecanoylamino)butyryl]-Gly-[Arg1,Glu14,His17,Pro37]-pramlintide] ({C20 diacid-γGlu}-GRCNTATCATQRLAEFLHHSSNNFGPILPPTNVGSNTP-NH2; disulfide 3-8 (inferred))	70%	90%
CC[C@H](C)[C@H](NC(=O)[C@@H]1CCCN1C(=O)CNC(=O)[C@H](Cc1ccccc1)NC(=O)[C@H](CC(N)=O)NC(=O)[C@H](CCC(N)=O)NC(=O)[C@H](CO)NC(=O)[C@H](CO)NC(=O)[C@H](Cc1c[nH]cn1)NC(=O)[C@H](Cc1c[nH]cn1)NC(=O)[C@H](CC(C)C)NC(=O)[C@H](Cc1ccccc1)NC(=O)[C@H](CCC(=O)O)NC(=O)[C@H](C)NC(=O)[C@H](CC(C)C)NC(=O)[C@H](CCCNC(=N)N)NC(=O)[C@H](CCC(N)=O)NC(=O)[C@@H](NC(=O)[C@H](C)NC(=O)[C@@H]1CSSC[C@H](NC(=O)[C@H](CCCCN)NC(=O)CC[C@H](NC(=O)CCCCCCCCCCCCCCCCCCC(=O)O)C(=O)O)C(=O)N[C@@H](CC(N)=O)C(=O)N[C@@H]([C@@H](C)O)C(=O)N[C@@H](C)C(=O)N[C@@H]([C@@H](C)O)C(=O)N1)[C@@H](C)O)C(=O)N[C@@H](CC(C)C)C(=O)N1CCC[C@H]1C(=O)N1CCC[C@H]1C(=O)N[C@H](C(=O)N[C@@H](CC(N)=O)C(=O)N[C@H](C(=O)NCC(=O)N[C@@H](CO)C(=O)N[C@@H](Cc1c[nH]cn1)C(=O)N[C@H](C(=O)N[C@@H](Cc1ccc(O)cc1)C(N)=O)[C@@H](C)O)C(C)C)[C@@H](C)O [Example 117, N-alpha-[(S)-4-Carboxy-4-(19-carboxynonadecanoylamino)butyryl]-[Glu14,His17,Gln21,His35)-pramlintide] ({C20 diacid-γGlu}-KCNTATCATQRLAEFLHHSSQNFGPILPPTNVGSHTY-NH2; disulfide 2-7 (inferred); C-terminus assumed)	50%	35%
CC[C@H](C)[C@H](NC(=O)[C@@H]1CCCN1C(=O)CNC(=O)[C@H](Cc1ccccc1)NC(=O)[C@H](CC(N)=O)NC(=O)[C@H](CC(N)=O)NC(=O)[C@H](CO)NC(=O)[C@H](CO)NC(=O)[C@H](CCCNC(=N)N)NC(=O)[C@H](Cc1c[nH]cn1)NC(=O)[C@H](CC(C)C)NC(=O)[C@H](Cc1ccccc1)NC(=O)[C@H](CCC(=O)O)NC(=O)[C@H](C)NC(=O)[C@H](CC(C)C)NC(=O)[C@H](CCCNC(=N)N)NC(=O)[C@H](CCC(N)=O)NC(=O)[C@@H](NC(=O)[C@H](C)NC(=O)[C@@H]1CSSC[C@H](NC(=O)[C@H](CCCN)NC(=O)[C@@H](CCCNC(=N)N)NC(=O)[C@@H](CCCNC(=N)N)NC(=O)COCCOCCNC(=O)COCCOCCNC(=O)CC[C@H](NC(=O)CCCCCCCCCCCCCCCCC(=O)O)C(=O)O)C(=O)N[C@@H](CC(N)=O)C(=O)N[C@@H]([C@@H](C)O)C(=O)N[C@@H](C)C(=O)N[C@@H]([C@@H](C)O)C(=O)N1)[C@@H](C)O)C(=O)N[C@@H](CC(C)C)C(=O)N1CCC[C@H]1C(=O)N1CCC[C@H]1C(=O)N[C@H](C(=O)N[C@@H](CC(N)=O)C(=O)N[C@H](C(=O)NCC(=O)N[C@@H](CO)C(=O)N[C@@H](CC(N)=O)C(=O)N[C@H](C(=O)N[C@@H](Cc1ccc(O)cc1)C(N)=O)[C@@H](C)O)C(C)C)[C@@H](C)O [Example 120, N-alpha-[2-(2-{2-[2-(2-{2-[(S)-4-Carboxy-4-(17-carboxyheptadecanoylamino)butyrylamino]ethoxy}ethoxy)acetylamino]ethoxy}ethoxy)acetyl]-D-Arg-D-Arg-[Orn1,Glu14,His17,Arg18]-pramlintide] ({C18 diacid-γGlu-AEEA-AEEA}-[dR][dR][Orn]CNTATCATQRLAEFLHRSSNNFGPILPPTNVGSNTY-NH2; disulfide 4-9 (inferred); C-terminus assumed)	53%	2%
